Like-named read-outs stand apart in the source and are kept apart here.
Tests used:
[1] = biological target: T1, nicotinic α4β2 receptor (α4β2 nAChR) (Rattus norvegicus, UniProt P09483+P12390); experiment: radioligand competition with 3H-cytisine, rat brain homogenate; assay type: binding; conditions: read-out: Ki ^a; cited from earlier work
[2] = biological target: T1, nicotinic α4β2 receptor (α4β2 nAChR); experiment: as above; assay type: binding

Q: For FCCCc1cncc(OC[C@@H]2CCCN2)c1 [compound 3, Nifrolidine], which Ki [1] is on record?
A: 0.8 nM

Q: Which Ki [2] does the source give for FCCCc1cncc(OC[C@@H]2CCN2)c1 [compound 4, 3-(2-(S)-azetidinylmethoxy)-5-(3′-fluoropropyl)pyridine] here?
A: 0.67 nM
